Measured values reported in patent publication US7323541B2, “Polypeptide DNA thereof and use of the same” (Takeda Pharmaceutical Company Limited, priority 2001, dated 2008).
Changes are numbered by the printed parent chain. Where no end group is shown, it is not given here.

Tests used:
[1] = biological target: T1, membrane fraction of TGR23-2 expressing CHO cells (Homo sapiens, UniProt Q6W5P4, N107I/Q344R); assay: GTPγS binding activity in membrane fraction; assay type: biochemical
T1 construct: the clones having the cDNA of TGR23-2, which is contained in pTB2174, were selected; expressed in transfected cells; host or cells: hamster CHO/dhfr- cells, vector pAKKO-111H (pAKKO-TGR23-2)
T1 sequence (Q6W5P4 1-371 N107I/Q344R): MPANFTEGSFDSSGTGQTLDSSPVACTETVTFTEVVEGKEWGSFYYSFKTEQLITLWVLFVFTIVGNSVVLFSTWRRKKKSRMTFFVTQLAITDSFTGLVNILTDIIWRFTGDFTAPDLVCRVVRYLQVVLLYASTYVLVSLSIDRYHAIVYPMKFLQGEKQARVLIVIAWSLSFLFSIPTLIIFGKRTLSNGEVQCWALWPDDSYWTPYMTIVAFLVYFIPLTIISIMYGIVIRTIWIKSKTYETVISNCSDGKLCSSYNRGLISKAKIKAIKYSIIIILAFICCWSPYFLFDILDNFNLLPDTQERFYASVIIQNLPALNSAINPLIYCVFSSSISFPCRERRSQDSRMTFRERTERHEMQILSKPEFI
Experimental: Enhancing activity of binding of [^35S]-Guanosine 5′-(γ-thio) triphosphate in the membrane fraction of TGR23-2 expressing CHO cells was measured by the following method. Firstly, it is described about preparation of membrane fraction. Twenty (20) ml of homogenation buffer (10 mM HEPES (pH7.3), 5 mM EDTA, 0.52 mM PMSF, 10 μg/ml pepstatin, 8 μg/ml E64, 20 μg/ml leupeptin) was added to 8×10^7 of TGR23-2 expressing CHO cells, and the cells were disrupted using Polytron (12,000 rpm, 30 seconds×3 times). The cell-disrupted fluids were centrifuged (1,000 g for 15 minutes) to get supernatant. Subsequently the supernatant was ultracentrifuged (Beckman type 30 rotor, 30,000 rpm, one hour), and the precipitate obtained was collected as a membrane fraction of TGR23-2 expressing CHO cells. The GTPγS binding activity was assayed as follows. The membrane fraction of TGR23-2 expressing CHO cells was diluted with membrane dilution buffer (50 mM Tris-HCl buffer (pH7.4), 5 mM MgCl2, 150 mM NaCl, 0.03% NaN3, 0.1% BSA, 1 μM GDP) to get cell membrane fraction solution for assay at the protein concentration of […]. Two (2) μl of 50 nM [^35S]-guanosine 5′-(γ-thio) triphosphate (NEN) and sample were added to 200 μl of cell membrane fraction solution for assay, and the mixture was incubated at 25° C. for one (1) hour. The mixture was filtered, and the filter was washed twice with 1.5 ml of washing buffer (50 mM Tris-HCl buffer (pH7.4), 5 mM MgCl2, 1 mM EDTA, 0.03% NaN3, 0.1% BSA). Then the radioactivity on the filter was measured by liquid scintillation counter. Human TGR23-2 ligand (1-20) prepared by the method described in Example 17, rat TGR23-2 ligand (1-18) prepared by the method described in Example 19 and mouse TGR23-2 ligand (1-20) prepared by the method described in Example 20 were administered to TGR23-2 expressing CHO cells at a variety of concentrations according to the method described above, and the GTPγS binding activity was determined.

[2] = biological target: T2, TGR23-1 expressing CHO cells (Homo sapiens, UniProt Q6W5P4); assay: Intracellular Ca ion concentration increasing activity using FLIPR; assay type: cell-based; conditions: variety of concentrations
T2 construct: the clones having the cDNA of TGR23-1, which is contained in pTB2173, were selected; expressed in transfected cells; host or cells: hamster CHO/dhfr- cells, vector pAKKO-111H (pAKKO-TGR23-1), clones No. 49 and No. 52
T2 sequence (Q6W5P4 1-371): T1 sequence (Q6W5P4 1-371 N107I/Q344R) with I107N, R344Q
Experimental: (§1) An enhancing activity of intracellular Ca^2+ release was assayed using FLIPR (Molecular Devices, Inc.). The CHO/TGR23-2 cells prepared in Example 1 and selected in Example 2 were plated on 96-well plate at 3×10^4 cells/well and cultured for 24 hours. A loading buffer was prepared by adding 1 vial of Fluo 3-AM to 10 ml of Hanks' solution (pH7.4) containing 2.5 mM Probenecid and 20 mM HEPES (hereafter, Hanks' solution (pH7.4) containing 2.5 mM Probenecid and 20 mM HEPES may be referred to as a washing buffer). The culture medium was discarded from the culture plate and 100 μl/well of the loading buffer were added to the cells. Then, the cells were incubated for 60 minutes in the incubator. After the loading buffer was removed from the culture plate and the cells were washed with the washing buffer, the plate was put in place of FLIPR. A sample was prepared by adding a sample buffer, which 2 mg/ml BSA and 1 mg/ml CHAPS were added to the washing buffer, to lyophilized product, stirring and treating by ultrasonication for 30 minutes, and transferred to 96-well sample plate. This sample plate was also put in place for assay. The enhancing activity of intracellular Ca^2+ release was measured as an increase of fluorescent intensity, which is raised by addition of the sample. Human TGR23-2 ligand (1-20) obtained in Example 17 was administered to TGR23-1 expressing CHO cells and TGR23-2 expressing CHO cells at a variety of concentrations according to the method described in Example 5, and the increasing activity of intracellular Ca ion concentration was determined using FLIPR. […] Rat TGR23-2 ligand (1-18) prepared by the method described in Example 19 and mouse TGR23-2 ligand (1-20) prepared by the method described in Example 20 were administered to TGR23-1 expressing CHO cells and TGR23-2 expressing CHO cells at a variety of concentrations according to the method described in Example 5, and the increasing activity of intracellular Ca ion concentration was determined using FLIPR.

[3] = biological target: T3, TGR23-2 expressing CHO cells (Homo sapiens, UniProt Q6W5P4, N107I/Q344R); assay: as above; assay type: cell-based; conditions: variety of concentrations
T3 construct: the clones having the cDNA of TGR23-2, which is contained in pTB2174, were selected; expressed in transfected cells; host or cells: hamster CHO/dhfr- cells, vector pAKKO-111H (pAKKO-TGR23-2)
T3 sequence (Q6W5P4 1-371 N107I/Q344R): T1 sequence (Q6W5P4 1-371 N107I/Q344R)
Experimental: as §1

GTPγS binding activity [1] | Sequence | increase of intracellular Ca ion concentration [2] | increase of intracellular Ca ion concentration [3]
enhance the GTPγS binding activity | SFRNGVGSGVKKTSFRRA [rat TGR23-2 ligand (1-18), Ser-Phe-Arg-Asn-Gly-Val-Gly-Ser-Gly-Val-Lys-Lys-Thr-Ser-Phe-Arg-Arg-Ala] | clearly enhance an increase of intracellular Ca ion concentration | clearly enhance an increase of intracellular Ca ion concentration
enhance the GTPγS binding activity | SFRNGVGTGMKKTSFQRAKS [human TGR23-2 ligand (1-20)] | enhances an increase of intracellular Ca ion concentration | enhances an increase of intracellular Ca ion concentration
